Results from PMC8060642, “Cloning, Expression, Characterization, and Antioxidant Protection of Glutaredoxin3 From Psychrophilic Bacterium Psychrobacter sp. ANT206” (Frontiers in Microbiology, 2021).

test system: T1, Ps-Grx3; assay: GR-coupled NADPH oxidation at […] nm, Lineweaver-Burk; assay type: biochemical, Psychrobacter sp. ANT206; conditions: 100 mM Tris-HCl pH 8.0, 25 °C; 1.0 mM GSH, 0.2 mM NADPH, 0.6 μg/mL GR; substrate 0.5-2.0 mM
T1 construct: full length, 87 residues (264 bp ORF), class I dithiol Grx with CPYC motif

First: N[C@@H](CSS(=O)(=O)O)C(=O)O [S-sulfocysteine]
Second: N[C@@H](CSSC[C@H](N)C(=O)O)C(=O)O [L-cystine]
The Km of the first is 1.5-fold higher: 790 µM for the first, 520 µM for the second.

`O=C1O[C@H]([C@@H](O)CO)C(=O)C1=O` [DHA, dehydroascorbate] and `OCCSSCCO` [HED, 2-Hydroxyethyl disulfide] are within 1.5-fold of each other in Km: 650 µM for the first, 690 µM for the second.
